{"source": "patent US8895501B2", "about": "“Eye-drop vaccine containing copolymer 1 for therapeutic immunization” (Yeda Research and Development Co. Ltd., priority 2003, dated 2014)", "key": {"[1]": {"test_system": "retinal ganglion cells (RGCs)", "experiment": "Chronic high IOP model (laser-induced), IOP-induced RGC death", "assay_type": "in vivo, rat", "settings": "for % of death of RGCs: non-thymectomized rats; for % of death of RGCs / loss of RGCs (% death): treatment started immediately after IOP elevation (Cop-1 single injection, brimonidine daily), 3 weeks; for loss of RGCs (% death): thymectomized (T cell-deprived) rats", "source_text": "(§1) Inbred adult male Lewis and Sprague-Dawley (SPD) rats (8 weeks; average weight 300 g) were supplied by the Animal Breeding Center at The Weizmann Institute of Science (Rehovot, Israel). The rats were maintained in a light- and temperature-controlled room and were matched for age and weight before each experiment. All animals were handled according to the regulations formulated by IACUC ([…]).\nBlockage of aqueous outflow causes an increase in IOP, which results in RGC death (Bakalash et al., 2002; Schori et al., 2001; Jia et al., 2000a; Levkovitch-Verbin et al., 2002). […] Rats were deeply anesthetized by intramuscular injection of ketamine hydrochloride (50 mg/kg) and xylazine hydrochloride (0.5 mg/kg). A slit lamp emitting blue-green argon laser irradiation (Haag-Streit, Köniz, Switzerland) was used to treat the right eye of the anesthetized rat with 80 to 120 applications directed toward three of the four episcleral veins and toward 270° of the limbal plexus. The laser beam was applied with a power of 1 W for 0.2 seconds, producing a spot size of 100 μm at the episcleral veins and 50 μm at the limbal plexus. At a second laser session 1 week later, the same parameters were used, except that the spot size was 100 μm in all applications. Irradiation was directed toward all four episcleral veins and 360° of the limbal plexus (Schori et al. 2001).\n(§2) Eyes from untreated rats were used as a control. RGCs were counted by an observer who was blinded to the identity of the retinas.\nRats with either laser-induced increase in IOP or acute IOP elevation were immunized with Cop 1 (100 μg) (Teva Pharmaceutical Industries Ltd., Petach Tikva, Israel) emulsified in 2.5 mg/ml of CFA in a total volume of 100 μl (Kipnis et al., 2000). Each animal was vaccinated subcutaneously at the root of the tail.\n(§3) Cop-1 in PBS was given at different concentrations and at different time points after the primary insult subcutaneously. Topical administration of Cop-1 was done after immersing the substance in PBS at a concentration of 20 mg/ml. Since each drop was of 50 μl, we administered 1 drop every 5 minutes for a total of 5 drops in 25 minutes."}, "[2]": {"test_system": "retinal ganglion cells (RGCs)", "experiment": "Acute transient high IOP model, IOP-induced RGC death", "assay_type": "in vivo, Lewis rats", "source_text": "as §1\nThe infusion bag was placed 1 meter above the rat's head, creating a closed loop circulation. High IOP was induced for exactly 1 hour after which the needle was removed from the eye and the hole was self-sealed.\nas §2, §3"}}, "note": "Values joined by “and” are separate entries in the source; they are usually repeats but may differ in a detail not shown here. Equal values may be shown once.", "data": [{"molecule": "glatiramer acetate [Cop-1]", "values": [{"measurement": "% of RGC death", "setting": "[1]; Cop-1 emulsified in CFA, day of first laser plus 2, 6 and 9 weeks later, retinas excised 12 weeks after first laser, n=5", "result": "33.7±1.4", "unit": "%"}, {"measurement": "% of RGC death", "setting": "[1]; Cop-1 emulsified in CFA, immunized on day of first laser, retinas excised 3 weeks later, n=7", "result": "12.6±5", "unit": "%"}, {"measurement": "% of RGC death", "setting": "[1]; adjuvant-free 500 μg, daily injections for 7 days starting on day 0, retinas excised 3 weeks later", "result": "41.41±6", "unit": "%"}, {"measurement": "% of RGC death", "setting": "[1]; adjuvant-free 500 μg, single injection on day 7 after first laser, retinas excised 3 weeks later", "result": "19.1±14.7", "unit": "%"}, {"measurement": "% of RGC death", "setting": "[1]; adjuvant-free, subcutaneous, 100 μg on first day of laser treatment", "result": "44±6", "unit": "%"}, {"measurement": "% of RGC death", "setting": "[1]; adjuvant-free, subcutaneous, 250 μg on first day of laser treatment", "result": "50.5±8", "unit": "%"}, {"measurement": "% of RGC death", "setting": "[1]; adjuvant-free, subcutaneous, 500 μg on first day of laser treatment", "result": "26.6±10", "unit": "%"}, {"measurement": "RGC protection 6 weeks after IOP was first elevated, comparison of regimens", "setting": "[1]; adjuvant-free, two injections (day 0 and 3 weeks later) versus a single injection after 3 weeks", "result": "more effective than a single injection after 3 weeks"}, {"measurement": "number of RGCs", "setting": "[1]; eye drops without adjuvant, 5 mg Cop-1, assessed 3 weeks after pressure elevation, p<10^-5", "result": 150, "unit": "RGCs"}, {"measurement": "% of death of RGCs", "setting": "[1]", "result": "23.5±5.7", "unit": "%"}, {"measurement": "loss of RGCs (% death)", "setting": "[1]", "result": "55±5.2% and 55%"}, {"measurement": "Average death rate of RGCs", "setting": "[2]; 5 mg Cop-1 over 25 minutes immediately after 1 hour of elevated IOP, two weeks after IOP elevation, n=4", "result": "31.12%±3.22"}, {"measurement": "RGC protection, eye drops applied to the eye contralateral to the elevated pressure", "setting": "[2]; Cop-1 eye drops to contralateral side versus ipsilateral", "result": "same effect as when given ipsilaterally"}, {"measurement": "loss of RGCs", "setting": "[2]; Cop-1 without adjuvant, 2 weeks after transient IOP elevation (1 hour)", "result": 20, "unit": "%"}]}, {"molecule": "Brc1c(NC2=NCCN2)ccc2nccnc12", "note": "[brimonidine]", "values": [{"measurement": "% of death of RGCs", "setting": "[1]", "result": "34.5±3.51", "unit": "%"}, {"measurement": "loss of RGCs (% death)", "setting": "[1]", "result": "38±7", "unit": "%"}]}]}
